According to patent publication US12227495B2, “Herbicidal compounds” (SYNGENTA CROP PROTECTION AG, priority 2018, dated 2025):

Legend:
Assay type in all cases: in vivo
Details in all cases: evaluated after 13 days
[1] = test system: Amaranthus retoflexus (AMARE); assay: Post-emergence herbicide test, glasshouse, percentage damage
Method: (§1) Seeds of a variety of test species are sown in standard soil in pots (Lolium perenne (LOLPE), Solanum nigrum (SOLNI), Amaranthus retoflexus (AMARE), Setaria faberi (SETFA), Echinochloa crus-galli (ECHCG), Ipomoea hederacea (IPOHE)). After cultivation for one day (pre-emergence) or after 8 days cultivation (post-emergence) under controlled conditions in a glasshouse (at 24/16° C., day/night; 14 hours light; 65% humidity), the plants are sprayed with an aqueous spray solution derived from the formulation of the technical active ingredient in acetone/water (50:50) solution containing 0.5% Tween 20 (polyoxyethelyene sorbitan monolaurate, CAS RN 9005-64-5). Compounds are applied at 500 g/ha unless otherwise stated. The test plants are then grown in a glasshouse under controlled conditions in a glasshouse (at 24/16° C., day/night; 14 hours light; 65% humidity) and watered twice daily. After 13 days for pre and post-emergence, the test is evaluated for the percentage damage caused to the plant. The biological activities are shown in the following table on a five point scale (5=81-100%; 4=61-80%; 3=41-60%; 2=21-40%; 1=0-20%).

[2] = test system: Echinochloa crus-galli (ECHCG); assay: as above
Method: as §1

[3] = test system: Ipomoea hederacea (IPOHE); assay: as above
Method: as §1

Lolium perenne (LOLPE) [4] = assay: as above
Method: as §1

Setaria faberi (SETFA) [5] = assay: as above
Method: as §1

Solanum nigrum (SOLNI) [6] = assay: as above
Method: as §1

[7] = test system: Amaranthus retoflexus (AMARE); assay: Pre-emergence herbicide test, glasshouse, percentage damage
Method: as §1

[8] = test system: Echinochloa crus-galli (ECHCG); assay: as above
Method: as §1

[9] = test system: Ipomoea hederacea (IPOHE); assay: as above
Method: as §1

Lolium perenne (LOLPE) [10] = assay: as above
Method: as §1

Setaria faberi (SETFA) [11] = assay: as above
Method: as §1

Solanum nigrum (SOLNI) [12] = assay: as above
Method: as §1

Row | SMILES | percentage damage caused to the plant, AMARE ([1]; 500 g/ha) | percentage damage caused to the plant, ECHCG ([2]; 500 g/ha) | percentage damage caused to the plant, IPOHE ([3]; 500 g/ha) | percentage damage caused to the plant, LOLPE (Lolium perenne (LOLPE) [4]; 500 g/ha) | percentage damage caused to the plant, SETFA (Setaria faberi (SETFA) [5]; 500 g/ha) | percentage damage caused to the plant, SOLNI (Solanum nigrum (SOLNI) [6]; 500 g/ha) | Pre-emergence Test AMARE percentage damage (five point scale) ([7]; rate 500 g/ha) | Pre-emergence Test ECHCG percentage damage (five point scale) ([8]; rate 500 g/ha) | Pre-emergence Test IPOHE percentage damage (five point scale) ([9]; rate 500 g/ha) | Pre-emergence Test LOLPE percentage damage (five point scale) (Lolium perenne (LOLPE) [10]; rate 500 g/ha) | Pre-emergence Test SETFA percentage damage (five point scale) (Setaria faberi (SETFA) [11]; rate 500 g/ha) | Pre-emergence Test SOLNI percentage damage (five point scale) (Solanum nigrum (SOLNI) [12]; rate 500 g/ha) | percentage damage caused to the plant, AMARE ([1]; 1000 g/ha) | percentage damage caused to the plant, ECHCG ([2]; 1000 g/ha) | percentage damage caused to the plant, IPOHE ([3]; 1000 g/ha) | percentage damage caused to the plant, LOLPE (Lolium perenne (LOLPE) [4]; 1000 g/ha) | percentage damage caused to the plant, SETFA (Setaria faberi (SETFA) [5]; 1000 g/ha) | percentage damage caused to the plant, SOLNI (Solanum nigrum (SOLNI) [6]; 1000 g/ha) | Pre-emergence Test AMARE percentage damage (five point scale) ([7]; rate 1000 g/ha) | Pre-emergence Test ECHCG percentage damage (five point scale) ([8]; rate 1000 g/ha) | further results
1 | Fc1cccc(Oc2ccc(C(F)(F)F)cn2)c1-c1cc(C(F)F)no1 [Compound A6] | 4 (4=61-80%) | 5 (5=81-100%) | 3 (3=41-60%) | 4 (4=61-80%) | 5 (5=81-100%) | 5 (5=81-100%) | 5 (5=81-100%) | 4 (4=61-80%) | 2 (2=21-40%) | 4 (4=61-80%) | 5 (5=81-100%) | 5 (5=81-100%) | – | – | – | – | – | – | – | – | –
2 | Fc1cccc(Oc2cccc(F)c2-c2cc(C(F)F)no2)n1 [Compound A7] | 2 (2=21-40%) | 4 (4=61-80%) | 2 (2=21-40%) | 2 (2=21-40%) | 5 (5=81-100%) | 5 (5=81-100%) | 5 (5=81-100%) | 4 (4=61-80%) | 1 (1=0-20%) | 1 (1=0-20%) | 4 (4=61-80%) | 5 (5=81-100%) | – | – | – | – | – | – | – | – | –
3 | Fc1cccc(Oc2cc(C(F)(F)F)ccn2)c1-c1cc(C(F)F)no1 [Compound A8] | 2 (2=21-40%) | 2 (2=21-40%) | 1 (1=0-20%) | 1 (1=0-20%) | 4 (4=61-80%) | 5 (5=81-100%) | 5 (5=81-100%) | 2 (2=21-40%) | 1 (1=0-20%) | 1 (1=0-20%) | 3 (3=41-60%) | 4 (4=61-80%) | – | – | – | – | – | – | – | – | –
4 | Fc1cccc(Oc2ccc(Cl)cn2)c1-c1cc(C(F)F)no1 [Compound A9] | 5 (5=81-100%) | 5 (5=81-100%) | 4 (4=61-80%) | 5 (5=81-100%) | 5 (5=81-100%) | 5 (5=81-100%) | 5 (5=81-100%) | 5 (5=81-100%) | 3 (3=41-60%) | 4 (4=61-80%) | 5 (5=81-100%) | 5 (5=81-100%) | – | – | – | – | – | – | – | – | –
5 | Fc1cnc(Oc2cccc(F)c2-c2cc(C(F)F)no2)c(F)c1 [Compound A10] | 5 (5=81-100%) | 5 (5=81-100%) | 5 (5=81-100%) | 5 (5=81-100%) | 5 (5=81-100%) | 5 (5=81-100%) | 5 (5=81-100%) | 5 (5=81-100%) | 5 (5=81-100%) | 5 (5=81-100%) | 5 (5=81-100%) | 5 (5=81-100%) | – | – | – | – | – | – | – | – | –
6 | N#Cc1ccc(Oc2cccc(F)c2-c2cc(C(F)F)no2)nc1 [Compound A12] | 5 (5=81-100%) | 5 (5=81-100%) | 5 (5=81-100%) | 5 (5=81-100%) | 5 (5=81-100%) | 5 (5=81-100%) | 5 (5=81-100%) | 5 (5=81-100%) | 5 (5=81-100%) | 5 (5=81-100%) | 5 (5=81-100%) | 5 (5=81-100%) | – | – | – | – | – | – | – | – | –
7 | O=[N+]([O-])c1ccc(Oc2ccccc2-n2cc(C(F)(F)F)cn2)nc1 [Compound A14, 5-nitro-2-[2-[4-(trifluoromethyl)pyrazol-1-yl]phenoxy]pyridine] | – | – | – | – | – | – | – | – | – | – | – | – | 5 (5=81-100%) | 5 (5=81-100%) | 4 (4=61-80%) | 5 (5=81-100%) | 5 (5=81-100%) | 5 (5=81-100%) | 5 (5=81-100%) | 5 (5=81-100%) | Pre-emergence Test IPOHE percentage damage (five point scale) ([9]; rate 1000 g/ha): 3 (3=41-60%); Pre-emergence Test LOLPE percentage damage (five point scale) (Lolium perenne (LOLPE) [10]; rate 1000 g/ha): 5 (5=81-100%); Pre-emergence Test SETFA percentage damage (five point scale) (Setaria faberi (SETFA) [11]; rate 1000 g/ha): 5 (5=81-100%); Pre-emergence Test SOLNI percentage damage (five point scale) (Solanum nigrum (SOLNI) [12]; rate 1000 g/ha): 5 (5=81-100%)
8 | FC(F)(F)c1ccc(Oc2ccccc2-n2cc(C(F)(F)F)cn2)nc1 [Compound A15] | – | – | – | – | – | – | – | – | – | – | – | – | 1 (1=0-20%) | 2 (2=21-40%) | 2 (2=21-40%) | 1 (1=0-20%) | 3 (3=41-60%) | 4 (4=61-80%) | 5 (5=81-100%) | 5 (5=81-100%) | Pre-emergence Test IPOHE percentage damage (five point scale) ([9]; rate 1000 g/ha): 1 (1=0-20%); Pre-emergence Test LOLPE percentage damage (five point scale) (Lolium perenne (LOLPE) [10]; rate 1000 g/ha): 3 (3=41-60%); Pre-emergence Test SETFA percentage damage (five point scale) (Setaria faberi (SETFA) [11]; rate 1000 g/ha): 5 (5=81-100%); Pre-emergence Test SOLNI percentage damage (five point scale) (Solanum nigrum (SOLNI) [12]; rate 1000 g/ha): 4 (4=61-80%)
9 | Fc1cc(Cl)cnc1Oc1ccccc1-n1cc(C(F)(F)F)cn1 [Compound A16] | – | – | – | – | – | – | – | – | – | – | – | – | 4 (4=61-80%) | 5 (5=81-100%) | 5 (5=81-100%) | 5 (5=81-100%) | 5 (5=81-100%) | 5 (5=81-100%) | 5 (5=81-100%) | 5 (5=81-100%) | Pre-emergence Test IPOHE percentage damage (five point scale) ([9]; rate 1000 g/ha): 5 (5=81-100%); Pre-emergence Test LOLPE percentage damage (five point scale) (Lolium perenne (LOLPE) [10]; rate 1000 g/ha): 5 (5=81-100%); Pre-emergence Test SETFA percentage damage (five point scale) (Setaria faberi (SETFA) [11]; rate 1000 g/ha): 5 (5=81-100%); Pre-emergence Test SOLNI percentage damage (five point scale) (Solanum nigrum (SOLNI) [12]; rate 1000 g/ha): 5 (5=81-100%)
10 | FC(F)(F)c1cnn(-c2ccccc2Oc2ccc(Cl)cn2)c1 [Compound A17] | – | – | – | – | – | – | – | – | – | – | – | – | 5 (5=81-100%) | 5 (5=81-100%) | 5 (5=81-100%) | 5 (5=81-100%) | 5 (5=81-100%) | 5 (5=81-100%) | 5 (5=81-100%) | 5 (5=81-100%) | Pre-emergence Test IPOHE percentage damage (five point scale) ([9]; rate 1000 g/ha): 5 (5=81-100%); Pre-emergence Test LOLPE percentage damage (five point scale) (Lolium perenne (LOLPE) [10]; rate 1000 g/ha): 5 (5=81-100%); Pre-emergence Test SETFA percentage damage (five point scale) (Setaria faberi (SETFA) [11]; rate 1000 g/ha): 5 (5=81-100%); Pre-emergence Test SOLNI percentage damage (five point scale) (Solanum nigrum (SOLNI) [12]; rate 1000 g/ha): 5 (5=81-100%)
11 | Fc1cnc(Oc2ccccc2-n2cc(C(F)(F)F)cn2)c(F)c1 [Compound A18] | – | – | – | – | – | – | – | – | – | – | – | – | – | – | – | – | – | – | – | – | percentage damage caused to the plant, AMARE ([1]; 250 g/ha): 3 (3=41-60%); percentage damage caused to the plant, ECHCG ([2]; 250 g/ha): 4 (4=61-80%); percentage damage caused to the plant, IPOHE ([3]; 250 g/ha): 2 (2=21-40%); percentage damage caused to the plant, LOLPE (Lolium perenne (LOLPE) [4]; 250 g/ha): 2 (2=21-40%); percentage damage caused to the plant, SETFA (Setaria faberi (SETFA) [5]; 250 g/ha): 3 (3=41-60%); percentage damage caused to the plant, SOLNI (Solanum nigrum (SOLNI) [6]; 250 g/ha): 3 (3=41-60%); Pre-emergence Test AMARE percentage damage (five point scale) ([7]; rate 250 g/ha): 5 (5=81-100%); Pre-emergence Test ECHCG percentage damage (five point scale) ([8]; rate 250 g/ha): 5 (5=81-100%); Pre-emergence Test IPOHE percentage damage (five point scale) ([9]; rate 250 g/ha): 1 (1=0-20%); Pre-emergence Test LOLPE percentage damage (five point scale) (Lolium perenne (LOLPE) [10]; rate 250 g/ha): 1 (1=0-20%); Pre-emergence Test SETFA percentage damage (five point scale) (Setaria faberi (SETFA) [11]; rate 250 g/ha): 5 (5=81-100%); Pre-emergence Test SOLNI percentage damage (five point scale) (Solanum nigrum (SOLNI) [12]; rate 250 g/ha): 5 (5=81-100%)
